# Source: US20260327225A1, “HETEROCYCLIC COMPOUNDS AS TRIGGERING RECEPTOR EXPRESSED ON MYELOID CELLS 2 AGONISTS AND METHODS OF USE” (VIGIL NEUROSCIENCE, INC., priority 2023, published 2026)
# Molecular target: T1, human TREM2 (Homo sapiens, UniProt Q9NZC2)
# T1 construct: expressed in transfected cells; host or cells: HEK293T-hTREM2 cells (HEK cell line expressing human TREM2 and DAP12)
# Assay: TREM2 agonist potency by cellular phosphorylation of Syk (AlphaLisa) in HEK293T-hTREM2 cells expressing human TREM2 and DAP12
# Assay type: cell-based
# Conditions: HEK293 cells expressing hTREM2 and DAP12; 45 minutes at room temperature; Syk phosphorylation, AlphaLisa; read-out: hTREM2 EC50
# In short: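 HEK293T cells co-expressing human TREM2 and DAP12 were exposed to compound in assay buffer for 45 min at room temperature, then lysed. Phospho-Syk measured by AlphaLisa; % activation fitted with a four-parameter agonist curve to give EC50.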
# T1 sequence (Q9NZC2 19-230): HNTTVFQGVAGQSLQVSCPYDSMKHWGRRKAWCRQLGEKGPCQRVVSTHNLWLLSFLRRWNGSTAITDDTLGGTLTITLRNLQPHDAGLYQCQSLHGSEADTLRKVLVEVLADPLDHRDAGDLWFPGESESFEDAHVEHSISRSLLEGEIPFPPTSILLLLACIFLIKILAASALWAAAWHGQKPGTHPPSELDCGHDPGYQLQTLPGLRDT
# T1 sequence (O43914 22-113 partner): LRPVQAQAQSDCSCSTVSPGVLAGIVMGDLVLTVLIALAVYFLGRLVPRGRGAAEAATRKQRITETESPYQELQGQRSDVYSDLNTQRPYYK
row,EC50 [nM],SMILES
1,< 100,"Cc1nc2nc(N3C[C@@H](C)O[C@@H](c4cnn(C5CC5)c4)C3)nc(C34CC(C#N)(C3)C4)c2nc1C [Example 102, 3-[2-[(2S,6R)-2-(1-cyclopropylpyrazol-4-yl)-6-methyl-morpholin-4-yl]-6,7-dimethyl-pteridin-4-yl]bicyclo[1.1.1]pentane-1-carbonitrile]"
2,> 500,"Cc1nc2nc(N3C[C@@H](C)O[C@@H](c4cnn(C5CC5)c4)C3)nc(-c3ccc(=O)n(C)c3)c2nc1C [Example 104, 5-[2-[(2S,6R)-2-(1-cyclopropylpyrazol-4-yl)-6-methyl-morpholin-4-yl]-6,7-dimethyl-pteridin-4-yl]-1-methyl-pyridin-2-one]"
3,< 100,"Cc1nc2nc([C@@H]3CCO[C@H](c4cn(C)c(=O)s4)C3)nc(C34CC(C(F)(F)F)(C3)C4)c2nc1C [Example 107, 5-[(2S,4R)-4-[6,7-dimethyl-4-[3-(trifluoromethyl)-1-bicyclo[1.1.1]pentanyl]pteridin-2-yl]tetrahydropyran-2-yl]-3-methyl-thiazol-2-one]"
4,< 100,"Cc1nc2nc([C@H]3CCO[C@@H](c4cn(C)c(=O)s4)C3)nc(C34CC(C(F)(F)F)(C3)C4)c2nc1C [Example 108, 5-[(2R,4S)-4-[6,7-dimethyl-4-[3-(trifluoromethyl)-1-bicyclo[1.1.1]pentanyl]pteridin-2-yl]tetrahydropyran-2-yl]-3-methyl-thiazol-2-one]"
5,< 100,"Cc1nc2nc(C3CCOC(c4ccn5nccc5c4)C3)nc(C34CC(C(F)(F)F)(C3)C4)c2nc1C (stereo not shown) [Example 109, 6,7-dimethyl-2-(2-pyrazolo[1,5-a]pyridin-5-yltetrahydropyran-4-yl)-4-[3-(trifluoromethyl)-1-bicyclo[1.1.1]pentanyl]pteridine]"
6,< 100,"Cc1nc2nc(C3CCOC(C4CCn5nccc5C4)C3)nc(C34CC(C(F)(F)F)(C3)C4)c2nc1C (stereo not shown) [Example 110, 6,7-dimethyl-2-[2-(4,5,6,7-tetrahydropyrazolo[1,5-a]pyridin-5-yl)tetrahydropyran-4-yl]-4-[3-(trifluoromethyl)-1-bicyclo[1.1.1]pentanyl]pteridine]"
7,< 100,"Cc1nc2nc(N3C[C@@H](C)O[C@@H](c4ccn5nccc5c4)C3)nc(C34CC(C(F)(F)F)(C3)C4)c2nc1C [Example 111, (2R,6S)-4-[6,7-dimethyl-4-[3-(trifluoromethyl)-1-bicyclo[1.1.1]pentanyl]pteridin-2-yl]-2-methyl-6-pyrazolo[1,5-a]pyridin-5-yl-morpholine]"
8,< 100,"Cc1nc2ccc(C3CC(c4nc(-c5ccc(F)cc5F)c5nc(C)c(C)nc5n4)CCO3)cc2o1 (stereo not shown) [Example 113, 6-[4-[4-(2,4-difluorophenyl)-6,7-dimethyl-pteridin-2-yl]tetrahydropyran-2-yl]-2-methyl-1,3-benzoxazole]"
9,< 100,"Cc1nc2nc(C3CCOC(c4ccc5nn(C)cc5c4)C3)nc(-c3ccc(F)cc3F)c2nc1C (stereo not shown) [Example 114, 4-(2,4-difluorophenyl)-6,7-dimethyl-2-[2-(2-methylindazol-5-yl)tetrahydropyran-4-yl]pteridine]"
10,< 100,"Cc1nc2ccc(C3CC(c4nc(-c5ccc(F)cc5F)c5nc(C)c(C)nc5n4)CCO3)cc2s1 (stereo not shown) [Example 115, 6-[4-[4-(2,4-difluorophenyl)-6,7-dimethyl-pteridin-2-yl]tetrahydropyran-2-yl]-2-methyl-1,3-benzothiazole]"
11,< 100,"Cc1cc2cc(C3CC(c4nc(-c5ccc(F)cc5F)c5nc(C)c(C)nc5n4)CCO3)ccn2n1 (stereo not shown) [Example 116, 4-(2,4-difluorophenyl)-6,7-dimethyl-2-[2-(2-methylpyrazolo-[1,5-a]pyridin-5-yl)tetrahydropyran-4-yl]pteridine]"
12,100 to 500,"Cc1nc2nc([C@H]3CCO[C@@H](c4cnn(C5CC5)c4)C3)nc(C34CC(C#N)(C3)C4)c2nc1C [Example 119, 3-(2-((2R,4S)-2-(1-cyclopropyl-1H-pyrazol-4-yl)tetrahydro-2H-pyran-4-yl)-6,7-dimethylpteridin-4-yl)bicyclo[1.1.1]pentane-1-carbonitrile]"
13,100 to 500,"Cc1nc2nc(N3C[C@@H](C)O[C@@H](c4cnn(C5CC5)c4)C3)nc(C34C5C6C7C5C3C7C64)c2nc1C (stereo partly drawn) [Example 121, (2S,6R)-4-(4-cuban-1-yl-6,7-dimethyl-pteridin-2-yl)-2-(1-cyclopropylpyrazol-4-yl)-6-methyl-morpholine]"
14,> 500,"Cc1nc2nc(C3CCOC(c4cnn5c4CCCC5)C3)nc(C34CC(C(F)(F)F)(C3)C4)c2nc1C (stereo not shown) [Example 123, 6,7-dimethyl-2-[2-(4,5,6,7-tetrahydropyrazolo[1,5-a]pyridin-3-yl)tetrahydropyran-4-yl]-4-[3-(trifluoromethyl)-1-bicyclo[1.1.1]pentanyl]pteridine]"
15,< 100,"Cc1nc2c(C34CC(C(F)(F)F)(C3)C4)nc(N3C[C@@H](C)O[C@@H](c4cnn(C5CC5)c4)C3)nc2c(=O)n1C [Example 127, 6-[(2S,6R)-2-(1-cyclopropylpyrazol-4-yl)-6-methyl-morpholin-4-yl]-2,3-dimethyl-8-[3-(trifluoromethyl)-1-bicyclo[1.1.1]pentanyl]pyrimido[5,4-d]pyrimidin-4-one]"
16,< 100,"Cc1cc2c(-c3ccc(C(F)(F)F)cc3F)nc([C@H]3CCO[C@@H](c4cnn(C5CC5)c4)C3)nc2c(=O)n1C [Example 136, 2-[(2R,4S)-2-(1-cyclopropylpyrazol-4-yl)tetrahydropyran-4-yl]-4-[2-fluoro-4-(trifluoromethyl)phenyl]-6,7-dimethyl-pyrido[3,4-d]pyrimidin-8-one]"
17,> 500,"CC1Cc2c(nc([C@H]3CCO[C@@H](c4cnn(C5CC5)c4)C3)nc2-c2ccc(C(F)(F)F)cc2F)C(=O)N1C (stereo partly drawn) [Example 138, 2-[(2R,4S)-2-(1-cyclopropylpyrazol-4-yl)tetrahydropyran-4-yl]-4-[2-fluoro-4-(trifluoromethyl)phenyl]-6,7-dimethyl-5,6-dihydropyrido[3,4-d]pyrimidin-8-one formic acid]"
18,< 100,"Cc1nc2nc([C@H]3CCO[C@@H](c4cnn(C5CC5)c4)C3)nc(C34C5C6C7C5C3C7C64)c2nc1C (stereo partly drawn) [Example 140, 2-((2R,4S)-2-(1-cyclopropyl-1H-pyrazol-4-yl)tetrahydro-2H-pyran-4-yl)-6,7-dimethyl-4-(cuban-1-yl)pteridine]"
19,< 100,"Cc1nc2nc([C@H]3CCO[C@@H](c4cnn(C5CC5)c4)C3)nc(C34C5C6C3C3C4C5C63C(F)(F)F)c2nc1C (stereo partly drawn) [Example 143, 2-((2R,4S)-2-(1-cyclopropyl-1H-pyrazol-4-yl)tetrahydro-2H-pyran-4-yl)-6,7-dimethyl-4-(4-(trifluoromethyl)-cuban-1-yl)pteridine]"
